Source: PubChem BioAssay AID179 (DTP/NCI, 2004)
Activity calls are given as the source filed them.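 The calls were made as follows: active = compounds giving half or more protection of infected cells from virus-caused growth loss, again on retest; inactive = the rest.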 Where a SMILES comes first, the peptide text is derived from it. The star is where a group is joined. Cbz = O=C(OCc1ccccc1)*

Tested on: CEM cells HIV-1 protection, formazan growth assay
Experiment: NCI AIDS Antiviral Assay
Conditions: for IC50: measured here: growth of uninfected CEM cells
Method in brief: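 Five concentrations of each compound were applied to infected and uninfected human CEM cells. Protection from HIV-1 was judged from growth measured with a soluble formazan assay.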

| SMILES | EC50 [µM] | IC50 [µM] | outcome |
| --- | --- | --- | --- |
| O=C1c2c(O)cccc2C(C2OC(CO)C(O)C(O)C2O)c2cc(CO)cc(O)c21 (configuration not stated) | > 603 | 389 | – |
| CC1=CC(=O)C2(C)CC[C@]3(O)CCCC123 (some centres not stated) | – | – | inactive |
| N#CCCC1(CCC#N)CCCCCCC(CCC#N)(CCC#N)C(=O)C1=O | > 200 | > 200 | – |
| COC(=O)Cc1c(-c2[nH]c3ccccc3c2CC(=O)OC)[nH]c2ccccc12 | – | – | inactive |
| CC(C)(C)C1CCC2(CC1)CC(=O)N(N1CCCCCC1)C(=O)C2 | > 200 | 55 | – |
| O=c1ncccn1C1OC(CO)C(O)C1F (configuration not stated) | – | – | inactive |
| Cc1ccc(S(=O)(=O)Nn2c(S)c(C#N)c(-c3ccc(N(C)C)cc3)c(C#N)c2=O)cc1 | > 200 | 7.76 | – |
| CCC1(COC(NC(=O)c2ccccc2)(C(F)(F)F)C(F)(F)F)COC1 | > 200 | 115 | – |
| CC(C)(C)[Si](C)(C)OC[C@@H](NC(=O)OCc1ccccc1)C(=O)O | > 200 | > 200 | – |
| COC1=C(C)C2CC(=O)OC3CC4C(C)CC(OC(C)=O)C(=O)[C@]4(C)C(C1=O)[C@@]32C (some centres not stated) | – | – | inactive |
| CCOC(=O)CNC(=O)C(NC(=O)C1CCCN1C(=O)OCc1ccccc1)C(C)CC (stereo not drawn) (Cbz-Pro-Ile-Gly-OEt; configuration not given here) | > 562 | 34.7 | – |
| O=c1c(SCc2ccc(Br)cc2)c(SCc2ccc(Br)cc2)cnn1-c1ccccc1 | > 12.6 | 6.46 | – |
| CN(C)CCSc1nc(-c2cccs2)c2ccccc2n1 | > 115 | 26.3 | – |
| Clc1ccc(C(OCn2ccnc2)c2nc3ccccc3[nH]2)c(Cl)c1 (configuration not stated) | > 200 | 107 | – |
| NC(=O)C(F)(F)C(N)=O | > 200 | > 200 | – |
| CSc1nc2nc(C(O)C(O)C(O)CO)cnc2c(=O)[nH]1 (configuration not stated) | – | – | inactive |
| O=C(CC1(O)C(=O)Nc2c(Cl)cc(Cl)cc21)c1ccc(F)cc1 (configuration not stated) | > 28.2 | > 28.2 | – |
| CC1OC(O[C@@H]2C=C3CC[C@@H]4[C@H](CC[C@]5(C)[C@@H](c6ccc(=O)oc6)CC[C@]45O)[C@@]3(C)CC2)C(O)C(OC2OC(CO)C(O)C(O)C2O)C1O (some centres not stated) | > 0.02 | 0.00295 | – |
| N#C/C(=C\c1ccc(O)c(O)c1)C(=O)NC1CCC(CC2CCC(NC(=O)/C(C#N)=C/c3ccc(O)c(O)c3)CC2)CC1 (configuration not stated) | > 200 | 1.07 | – |
| CN(C)CCNC(=O)c1cnn(C)c1[N+](=O)[O-] | > 200 | > 200 | – |
| CC(=O)OC1C[C@](C)(O)/C=C/CC(C)/C=C/[C@@]2(C)CCC(C(C)(C)O)C12 (some centres not stated) | – | – | inactive |
| C[N+](C)(C)Cc1c(CC#N)[nH]c2ccccc12 | > 123 | 66.1 | – |

| SMILES | EC50 [µM] | IC50 [µM] | outcome |
| --- | --- | --- | --- |
| O=c1[nH]c(Nc2cccc(Br)c2)nc2nc[nH]c12 | > 200 | > 100 | – |
| COc1ccc(-c2c(C3=NCCCN3)nnn2-c2ccc(Cl)cc2)cc1 | 14.1 | 85.1 | – |
| COc1cc(/C=C2\CCC(C)/C(=C\c3cc(OC)c(OC)c(OC)c3)C2=O)cc(OC)c1OC (configuration not stated) | > 200 | 7.24 | – |
| Cn1c2c(c3ccccc3c1=O)C(=O)c1ccccc1-2 | > 14.5 | 7.41 | – |
| O=[N+]([O-])c1ccc(C2=Nn3c(nnc3-c3ccccc3)SC2)o1 | – | – | inactive |
| CSc1c(C#N)c(=O)n(N)c2n[nH]c(C)c12 | > 200 | > 200 | – |
| CC(=O)Oc1ccc2cc(-c3ccccc3OC(C)=O)c(=O)oc2c1 | > 200 | 74.1 | – |
| COc1cc2ccc3c4cc(OC)c(OC)cc4c[n+](C)c3c2cc1O | – | – | inactive |
| O=C(CNc1ccc(Cl)cc1)Nn1c(-c2ccccc2)nc2ccccc2c1=O | > 200 | 5.13 | – |
| CCCC1C(=O)N2C(N(C)C)=Nc3ccc(C)cc3N2C1=O (configuration not stated) | > 832 | 457 | – |
| CO/C(CO)=C1\CC2(OC1=O)[C@@H]1O[C@@H]1C1(O)[C@H]3C(=O)O[C@@H]([C@@H](OC)C21C)[C@@]3(O)C(C)C (some centres not stated) | > 407 | > 407 | – |
| NNc1ncnc(NN)c1Br | > 200 | 56.2 | – |
| O=c1ccc2nc3cc(Br)ccc3sc-2c1 | > 24.5 | > 24.5 | – |
| CCC/C(=N\NC(=S)N1CCN(c2ccccn2)CC1)c1ccccn1 | > 19.5 | 0.011 | – |
| CC(=O)O[C@H]1CC[C@@]2(C)C(=CC[C@H]3[C@@H]4CC[C@H]([C@H](C)C(=O)OCC5OC(n6cc(C)c(=O)[nH]c6=O)CC5N=[N+]=[N-])[C@@]4(C)CC[C@@H]32)C1 (some centres not stated) | > 200 | 4.79 | – |
| O=C(Cn1cc(F)c(=O)[nH]c1=O)C12CC3CC(CC(C3)C1)C2 | > 200 | 186 | – |
| O=c1cc2ccccc2nn1Cc1ccccc1 | > 21.9 | > 21.9 | – |
| COC(=O)C(=O)CC(=O)CCn1[nH]c(=O)c(Cl)c(Cl)c1=O | > 389 | 295 | – |
| O=C(NNC(=S)Nc1ccccc1)c1nsc2ccccc12 | > 110 | 17.8 | – |
| COc1ccc2cccc(C(=O)c3ccc(C)c4c3CCC4)c2c1 | – | – | inactive |
| O=C1[C@H](c2ccccc2)C2c3ccccc3CCN12 (some centres not stated) | > 200 | 97.7 | – |
